Measured values: PubChem BioAssay (NCI)
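Cultured in 96-well plates, cells were exposed to test compound for 48 hours across five concentrations. TGI: concentration producing complete growth inhibition.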

Columns and labels:
Assay in all cases: growth of human tumour cells (NCI), 48 h
SK-MEL-28 melanoma = system: SK-MEL-28 melanoma
HCC-2998 colon = system: HCC-2998 colon
OVCAR-5 ovarian = system: OVCAR-5 ovarian
NCI-H460 lung = system: NCI-H460 lung
RXF 393 renal = system: RXF 393 renal
ACHN renal = system: ACHN renal
MOLT-4 leukemia = system: MOLT-4 leukemia
SNB-19 CNS = system: SNB-19 CNS
SNB-75 CNS = system: SNB-75 CNS
OVCAR-4 ovarian = system: OVCAR-4 ovarian
A498 renal = system: A498 renal
SF-539 CNS = system: SF-539 CNS
SF-295 CNS = system: SF-295 CNS
SF-268 CNS = system: SF-268 CNS
EKVX NSCLC = system: EKVX NSCLC
MDA-MB-435 = system: MDA-MB-435
CCRF-CEM leukemia = system: CCRF-CEM leukemia
U251 CNS = system: U251 CNS
A549 NSCLC = system: A549 NSCLC
KM12 colon = system: KM12 colon
SK-OV-3 ovarian = system: SK-OV-3 ovarian
M14 melanoma = system: M14 melanoma
SR leukemia = system: SR leukemia
HS 578T breast = system: HS 578T breast
UO-31 renal = system: UO-31 renal
IGROV1 ovarian = system: IGROV1 ovarian
SK-MEL-2 melanoma = system: SK-MEL-2 melanoma
BT-549 breast = system: BT-549 breast
K-562 leukemia = system: K-562 leukemia
NCI-H23 lung = system: NCI-H23 lung
MCF7 breast = system: MCF7 breast
HCT-15 colon = system: HCT-15 colon
T-47D breast = system: T-47D breast
UACC-62 melanoma = system: UACC-62 melanoma
MDA-MB-231 breast = system: MDA-MB-231 breast
OVCAR-8 ovarian = system: OVCAR-8 ovarian
HT29 colon = system: HT29 colon
SW-620 colon = system: SW-620 colon
MALME-3M melanoma = system: MALME-3M melanoma
NCI-H522 lung = system: NCI-H522 lung
MDA-N = system: MDA-N
HCT-116 colon = system: HCT-116 colon
DU-145 prostate = system: DU-145 prostate
OVCAR-3 ovarian = system: OVCAR-3 ovarian
HOP-92 NSCLC = system: HOP-92 NSCLC
786-0 renal = system: 786-0 renal
RPMI-8226 leukemia = system: RPMI-8226 leukemia
CAKI-1 renal = system: CAKI-1 renal
NCI/ADR-RES ovarian = system: NCI/ADR-RES ovarian
COLO 205 colon = system: COLO 205 colon
SK-MEL-5 melanoma = system: SK-MEL-5 melanoma
PC-3 prostate = system: PC-3 prostate
LOX IMVI melanoma = system: LOX IMVI melanoma
UACC-257 melanoma = system: UACC-257 melanoma
HOP-62 NSCLC = system: HOP-62 NSCLC
SN12C renal = system: SN12C renal
TK-10 renal = system: TK-10 renal
NCI-H226 lung = system: NCI-H226 lung
HL-60(TB) leukemia = system: HL-60(TB) leukemia

## COc1cccc2c3ccccc3c3nc[nH]c3c12
SK-MEL-28 melanoma
  TGI: > 77.2 µM
HCC-2998 colon
  TGI: > 55.6 µM
OVCAR-5 ovarian
  TGI: > 100 µM
NCI-H460 lung
  TGI: > 69.2 µM
RXF 393 renal
  TGI: > 100 µM
ACHN renal
  TGI: > 100 µM
MOLT-4 leukemia
  TGI: 28.4 µM
SNB-19 CNS
  TGI: > 100 µM
SNB-75 CNS
  TGI: > 100 µM
OVCAR-4 ovarian
  TGI: > 100 µM
A498 renal
  TGI: > 90.5 µM
SF-539 CNS
  TGI: 52 µM
SF-295 CNS
  TGI: 46.4 µM
SF-268 CNS
  TGI: > 100 µM
EKVX NSCLC
  TGI: > 100 µM
MDA-MB-435
  TGI: > 94.6 µM
CCRF-CEM leukemia
  TGI: 52.5 µM
U251 CNS
  TGI: > 100 µM
A549 NSCLC
  TGI: > 100 µM
KM12 colon
  TGI: > 100 µM
SK-OV-3 ovarian
  TGI: > 100 µM
M14 melanoma
  TGI: > 100 µM
SR leukemia
  TGI: 46.6 µM
HS 578T breast
  TGI: 3.75 µM
UO-31 renal
  TGI: > 100 µM
IGROV1 ovarian
  TGI: > 100 µM
SK-MEL-2 melanoma
  TGI: > 100 µM
BT-549 breast
  TGI: > 100 µM
K-562 leukemia
  TGI: 28.4 µM
NCI-H23 lung
  TGI: > 100 µM
MCF7 breast
  TGI: > 100 µM
HCT-15 colon
  TGI: 97.1 µM
T-47D breast
  TGI: > 100 µM
UACC-62 melanoma
  TGI: > 100 µM
MDA-MB-231 breast
  TGI: > 79.2 µM
OVCAR-8 ovarian
  TGI: > 100 µM
HT29 colon
  TGI: > 100 µM
SW-620 colon
  TGI: > 71.2 µM
MALME-3M melanoma
  TGI: > 100 µM
NCI-H522 lung
  TGI: > 70.1 µM
MDA-N
  TGI: > 100 µM
HCT-116 colon
  TGI: > 100 µM
DU-145 prostate
  TGI: > 100 µM
OVCAR-3 ovarian
  TGI: > 100 µM
HOP-92 NSCLC
  TGI: 61.9 µM
786-0 renal
  TGI: > 57.9 µM
RPMI-8226 leukemia
  TGI: 44.5 µM
CAKI-1 renal
  TGI: > 100 µM
NCI/ADR-RES ovarian
  TGI: > 100 µM
COLO 205 colon
  TGI: 36.1 µM
SK-MEL-5 melanoma
  TGI: 30.4 µM
PC-3 prostate
  TGI: > 100 µM
LOX IMVI melanoma
  TGI: > 100 µM
UACC-257 melanoma
  TGI: > 63.8 µM
HOP-62 NSCLC
  TGI: > 100 µM
SN12C renal
  TGI: > 100 µM
TK-10 renal
  TGI: > 75.4 µM
NCI-H226 lung
  TGI: > 95 µM

## COc1cc(/C=C/c2nc(N)nnc2C)cc(OC)c1OC
SK-MEL-28 melanoma
  TGI: > 100 µM
HCC-2998 colon
  TGI: 29.5 µM
OVCAR-5 ovarian
  TGI: > 58.9 µM
NCI-H460 lung
  TGI: > 58.5 µM
RXF 393 renal
  TGI: > 64.4 µM
ACHN renal
  TGI: > 56.1 µM
MOLT-4 leukemia
  TGI: > 90.7 µM
SNB-19 CNS
  TGI: > 82.2 µM
OVCAR-4 ovarian
  TGI: > 73.7 µM
A498 renal
  TGI: > 71.6 µM
HL-60(TB) leukemia
  TGI: 8.36 µM
SF-295 CNS
  TGI: > 72.6 µM
SF-268 CNS
  TGI: > 54.4 µM
EKVX NSCLC
  TGI: > 72.9 µM
MDA-MB-435
  TGI: > 94.7 µM
CCRF-CEM leukemia
  TGI: 55.4 µM
U251 CNS
  TGI: > 100 µM
A549 NSCLC
  TGI: > 79.4 µM
KM12 colon
  TGI: > 50.5 µM
SK-OV-3 ovarian
  TGI: > 65.6 µM
M14 melanoma
  TGI: > 56.4 µM
SR leukemia
  TGI: > 100 µM
HS 578T breast
  TGI: > 67.5 µM
UO-31 renal
  TGI: > 42 µM
IGROV1 ovarian
  TGI: 37.3 µM
SK-MEL-2 melanoma
  TGI: > 54.4 µM
BT-549 breast
  TGI: > 64 µM
K-562 leukemia
  TGI: 71.2 µM
NCI-H23 lung
  TGI: > 68.1 µM
MCF7 breast
  TGI: > 100 µM
HCT-15 colon
  TGI: 38.9 µM
T-47D breast
  TGI: > 100 µM
UACC-62 melanoma
  TGI: > 50.3 µM
MDA-MB-231 breast
  TGI: > 100 µM
OVCAR-8 ovarian
  TGI: > 100 µM
HT29 colon
  TGI: 39 µM
SW-620 colon
  TGI: > 100 µM
MALME-3M melanoma
  TGI: 32.8 µM
NCI-H522 lung
  TGI: 21.7 µM
MDA-N
  TGI: > 100 µM
HCT-116 colon
  TGI: > 53.9 µM
DU-145 prostate
  TGI: > 100 µM
HOP-92 NSCLC
  TGI: > 100 µM
786-0 renal
  TGI: > 60.6 µM
RPMI-8226 leukemia
  TGI: 52.5 µM
CAKI-1 renal
  TGI: > 100 µM
NCI/ADR-RES ovarian
  TGI: > 90.2 µM
COLO 205 colon
  TGI: > 53 µM
SK-MEL-5 melanoma
  TGI: 52.2 µM
PC-3 prostate
  TGI: > 53 µM
LOX IMVI melanoma
  TGI: > 35.9 µM
UACC-257 melanoma
  TGI: > 59.8 µM
HOP-62 NSCLC
  TGI: 29 µM
SN12C renal
  TGI: > 100 µM
TK-10 renal
  TGI: > 77.3 µM
NCI-H226 lung
  TGI: > 55.4 µM

## O=S(=O)(c1ccc(Br)cc1)N1CCN(S(=O)(=O)c2ccc(Br)cc2)CC1
SK-MEL-28 melanoma
  TGI: > 100 µM
OVCAR-5 ovarian
  TGI: > 100 µM
RXF 393 renal
  TGI: > 100 µM
ACHN renal
  TGI: > 100 µM
MOLT-4 leukemia
  TGI: 26.7 µM
SNB-19 CNS
  TGI: > 100 µM
SNB-75 CNS
  TGI: > 100 µM
OVCAR-4 ovarian
  TGI: > 100 µM
A498 renal
  TGI: > 100 µM
HL-60(TB) leukemia
  TGI: > 100 µM
SF-295 CNS
  TGI: > 100 µM
SF-268 CNS
  TGI: > 100 µM
EKVX NSCLC
  TGI: > 100 µM
MDA-MB-435
  TGI: > 100 µM
CCRF-CEM leukemia
  TGI: > 100 µM
U251 CNS
  TGI: > 100 µM
A549 NSCLC
  TGI: > 100 µM
KM12 colon
  TGI: > 100 µM
SK-OV-3 ovarian
  TGI: > 100 µM
M14 melanoma
  TGI: > 100 µM
SR leukemia
  TGI: > 100 µM
HS 578T breast
  TGI: > 100 µM
UO-31 renal
  TGI: > 100 µM
IGROV1 ovarian
  TGI: > 100 µM
SK-MEL-2 melanoma
  TGI: > 100 µM
BT-549 breast
  TGI: > 100 µM
K-562 leukemia
  TGI: > 100 µM
NCI-H23 lung
  TGI: > 100 µM
MCF7 breast
  TGI: > 100 µM
HCT-15 colon
  TGI: > 100 µM
T-47D breast
  TGI: > 100 µM
UACC-62 melanoma
  TGI: > 100 µM
MDA-MB-231 breast
  TGI: > 100 µM
OVCAR-8 ovarian
  TGI: > 100 µM
HT29 colon
  TGI: > 100 µM
SW-620 colon
  TGI: > 100 µM
MALME-3M melanoma
  TGI: > 100 µM
NCI-H522 lung
  TGI: > 100 µM
MDA-N
  TGI: > 100 µM
HCT-116 colon
  TGI: > 100 µM
DU-145 prostate
  TGI: > 100 µM
OVCAR-3 ovarian
  TGI: > 100 µM
HOP-92 NSCLC
  TGI: > 100 µM
786-0 renal
  TGI: > 100 µM
RPMI-8226 leukemia
  TGI: > 100 µM
CAKI-1 renal
  TGI: > 100 µM
NCI/ADR-RES ovarian
  TGI: > 100 µM
COLO 205 colon
  TGI: > 100 µM
SK-MEL-5 melanoma
  TGI: > 100 µM
PC-3 prostate
  TGI: > 100 µM
LOX IMVI melanoma
  TGI: > 100 µM
UACC-257 melanoma
  TGI: > 100 µM
HOP-62 NSCLC
  TGI: > 100 µM
SN12C renal
  TGI: > 100 µM
TK-10 renal
  TGI: > 100 µM
NCI-H226 lung
  TGI: > 100 µM
